# According to ChEMBL document CHEMBL1201862, “PubChem BioAssay data set” (2004):
# Calls of active or inactive are those of the source.
# Key:
# Beta-galactosidase = Beta-galactosidase (Escherichia coli, UniProt Q8VNN2); experiment: Dose response counterscreen for EBI2 assay utilizing the enzyme, b-galactosidase.; format: functional
# cells [1] = format: functional, cell-based
# [2] = biological target: T1, Trace amine-associated receptor 1 (Homo sapiens, UniProt Q96RJ0); experiment: Fluorescence-based cell-based high throughput dose response assay to identify agonists of the human trace amine associated receptor 1 (TAAR1).; format: functional
# T1 sequence (Q96RJ0 whole entry): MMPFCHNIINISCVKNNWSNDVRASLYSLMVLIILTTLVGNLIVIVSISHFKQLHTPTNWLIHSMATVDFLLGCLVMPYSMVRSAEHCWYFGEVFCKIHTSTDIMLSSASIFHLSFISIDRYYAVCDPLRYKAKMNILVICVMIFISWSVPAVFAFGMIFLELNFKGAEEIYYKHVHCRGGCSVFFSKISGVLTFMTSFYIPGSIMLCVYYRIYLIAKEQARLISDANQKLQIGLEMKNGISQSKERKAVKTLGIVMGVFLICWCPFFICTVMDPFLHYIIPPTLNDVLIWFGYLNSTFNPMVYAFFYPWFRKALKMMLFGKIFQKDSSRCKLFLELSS
# [3] = biological target: T1, Trace amine-associated receptor 1; experiment: Counterscreen for agonists of the human trace amine associated receptor 1 (hTAAR1): Fluorescence-based cell-based high throughput dose response assay to identify hTAAR1 agonist that also desensitize TAAR1 receptor response.; format: functional
# cells [4] = format: functional, cell-based; remark: listed apart in the source
# [5] = cytotoxicity in HEK293 background cells – cell-based, dry powder, set 2, counter-screen for EBV LMP1 inhibitor project, dose response (AID 624374); format: functional
# [6] = Cytotoxicity screening for potential Inhibitors of Bacterial Capsule Biogenesis (4).; format: functional
# Caspase-6 = biological target: T2, Caspase-6 (Homo sapiens, UniProt P55212); experiment: inhibition of CASP6 peptide cleavage – biochemical, VEID-R110 fluorescence, cherry-pick, dose response (AID 720632)
# T2 sequence (P55212 whole entry): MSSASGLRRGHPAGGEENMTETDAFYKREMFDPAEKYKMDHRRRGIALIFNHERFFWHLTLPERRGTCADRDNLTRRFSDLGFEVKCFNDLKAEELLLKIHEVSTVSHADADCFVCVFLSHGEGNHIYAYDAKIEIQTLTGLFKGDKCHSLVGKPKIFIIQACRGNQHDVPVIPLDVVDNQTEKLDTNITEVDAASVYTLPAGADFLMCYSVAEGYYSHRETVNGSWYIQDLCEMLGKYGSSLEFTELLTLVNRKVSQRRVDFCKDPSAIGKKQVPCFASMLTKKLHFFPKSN
# [7] = tested on: Streptococcus sp. 'group A'; experiment: Streptococcus pyogenes SK(-)GAS viability under kanamycin – luminescence, BacTiterGlo, confirmation, counter-screen for streptokinase expression inhibitor project, dose response (AID 1900); format: functional, organism-based
# Streptococcus = experiment: GAS UMAA2166 growth inhibition – luminescence, BacTiterGlo, counter-screen for streptokinase expression inhibitor project, dose response (AID 1915); format: functional, organism-based;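 further: potency for reduction of bacterial viability or growth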
# Albumin = Albumin (Bos taurus, UniProt P02769); experiment: Counterscreen for inhibitors of T-cell receptor (TCR)-CD3 interaction: Fluorescence-based biochemical high throughput dose response assay to identify inhibitors of T-cell receptor (TCR)-CD3 interaction using a TAMRA-labeled BSA probe.; format: functional
# Sequence of Albumin (P02769 whole entry): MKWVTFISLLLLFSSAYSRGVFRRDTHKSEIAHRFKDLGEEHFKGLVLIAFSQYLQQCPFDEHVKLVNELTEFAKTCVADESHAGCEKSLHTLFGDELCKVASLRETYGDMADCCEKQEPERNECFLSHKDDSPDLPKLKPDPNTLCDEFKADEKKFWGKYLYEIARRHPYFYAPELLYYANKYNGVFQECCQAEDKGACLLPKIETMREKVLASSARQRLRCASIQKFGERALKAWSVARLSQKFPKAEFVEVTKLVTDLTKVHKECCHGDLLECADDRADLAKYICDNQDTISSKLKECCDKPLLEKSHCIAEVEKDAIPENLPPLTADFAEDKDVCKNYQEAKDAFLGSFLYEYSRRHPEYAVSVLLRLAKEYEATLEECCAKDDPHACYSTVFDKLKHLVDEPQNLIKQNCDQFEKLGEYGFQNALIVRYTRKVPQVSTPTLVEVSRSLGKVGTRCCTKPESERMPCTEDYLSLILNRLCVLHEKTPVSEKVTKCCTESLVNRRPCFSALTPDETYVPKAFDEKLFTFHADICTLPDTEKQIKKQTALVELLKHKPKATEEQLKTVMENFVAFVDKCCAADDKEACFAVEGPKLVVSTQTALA
# Sequence of Beta-galactosidase (Q8VNN2 whole entry): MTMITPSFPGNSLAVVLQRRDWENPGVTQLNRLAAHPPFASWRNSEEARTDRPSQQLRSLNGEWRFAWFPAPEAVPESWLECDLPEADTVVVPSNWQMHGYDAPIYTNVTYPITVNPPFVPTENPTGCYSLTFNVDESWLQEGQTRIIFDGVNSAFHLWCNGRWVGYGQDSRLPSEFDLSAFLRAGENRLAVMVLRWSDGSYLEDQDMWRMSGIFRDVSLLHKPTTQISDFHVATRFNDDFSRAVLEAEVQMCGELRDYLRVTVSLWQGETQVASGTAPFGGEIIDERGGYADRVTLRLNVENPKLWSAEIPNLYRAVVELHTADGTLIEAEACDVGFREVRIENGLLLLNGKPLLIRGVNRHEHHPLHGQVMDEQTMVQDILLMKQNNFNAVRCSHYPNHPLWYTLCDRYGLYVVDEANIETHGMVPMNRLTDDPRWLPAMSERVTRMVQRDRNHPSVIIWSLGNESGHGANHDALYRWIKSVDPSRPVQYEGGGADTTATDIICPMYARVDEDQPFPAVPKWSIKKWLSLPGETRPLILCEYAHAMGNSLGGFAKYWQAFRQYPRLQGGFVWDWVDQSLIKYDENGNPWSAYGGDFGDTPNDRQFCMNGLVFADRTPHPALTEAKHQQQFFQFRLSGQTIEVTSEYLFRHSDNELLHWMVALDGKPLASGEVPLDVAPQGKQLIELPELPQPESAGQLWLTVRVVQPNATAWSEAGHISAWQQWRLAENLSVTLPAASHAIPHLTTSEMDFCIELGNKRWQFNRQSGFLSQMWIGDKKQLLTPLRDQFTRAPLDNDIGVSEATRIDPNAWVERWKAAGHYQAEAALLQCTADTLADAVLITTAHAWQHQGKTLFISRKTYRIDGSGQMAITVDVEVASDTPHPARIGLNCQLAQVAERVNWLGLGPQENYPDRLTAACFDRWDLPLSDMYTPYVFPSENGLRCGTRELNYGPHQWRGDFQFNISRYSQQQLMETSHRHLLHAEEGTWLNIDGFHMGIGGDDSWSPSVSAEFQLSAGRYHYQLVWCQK
compound,measurement,setting,value
COc1ccc(-n2nnnc2C(c2ccccc2OC(F)(F)F)N2CCN(C/C=C/c3ccccc3)CC2)cc1 (stereo not given),IC50,Beta-galactosidase,> 80 µM (inactive)
CC(CNC(=O)[C@H]1O[C@@H](n2cnc3c(=O)[nH]c(N)nc32)[C@H](O)[C@@H]1O)c1ccccc1 (stereo not given in full),IC50,cells [1],> 29.9 µM (inactive)
same,EC50,[2],1.54 µM (active)
same,IC50,[3],3.77 µM (active)
same,EC50,cells [4],> 29.9 µM (inactive)
CO[C@@H]1CN(C)C(=O)c2ccc(NC(C)=O)cc2OC[C@@H](C)N(Cc2ccccc2F)C[C@H]1C,AbsAC35,[5],167.32 µM
O=C(C[C@@H]1CC[C@@H]2[C@H](COC[C@@H](O)CN2Cc2ccc(Oc3ccccc3)cc2)O1)N1CCc2ccccc2C1,AbsAC35,[5],79.64 µM
N#C[C@@H]1[C@H](c2ccc(C#Cc3ccccc3F)cc2)[C@@H](CO)N1C(=O)c1cccnc1,AbsAC35,[5],93.82 µM
Cc1cnccc1NC(=O)c1ccc2ncsc2c1,CC50,[6],> 300 µM (inactive)
Cc1cc(NC(=O)c2ccc3nc(NC(=O)OC(C)(C)C)sc3c2)ccn1,CC50,[6],96.8 µM (active)
O=C(Nc1ccncc1F)c1ccc2ncsc2c1,CC50,[6],> 300 µM (inactive)
CCOC(=O)[C@H](Cc1c[nH]c2ccccc12)NC(=O)CN=[N+]=[N-],AC50,Caspase-6,6.78 µM (active)
Cc1cc(C(=O)N/N=C/c2cc(Br)cc([N+](=O)[O-])c2O)c2ccccc2n1,EC50,[7],1.36 µM (active)
same,EC50,Streptococcus,1.5 µM (active)
same,IC50,Albumin,> 94.1 µM (inactive)
